The source of these data is US20060059579A1, “Model animals non-responsive to mycobacteria-origin lipoprotein/lipopeptide” (Japan Science and Technology Agency, priority 2002, published 2006).

The test system of assay [1] is peritoneal macrophages of wild-type mice. Type of assay: cell-based, mouse.
The test system of assay [2] is TLR1^-/- macrophages. Type of assay: cell-based, mouse.
The test system of assay [3] is TLR1^-/- macrophages. Type of assay: cell-based, mouse. The source holds these as a separate data set.
The next assay relates to TLR2^-/- macrophages. Particulars: Science 291, 1544, 2001; cited from earlier work.
Another assay addresses T1, TLR2 (Homo sapiens, UniProt O60603).
T1 construct: expressed in transfected cells; host or cells: HEK 293 cells, transient transfection
Briefly: NF-κB pELAM-luciferase reporter assay in HEK 293 cells expressing TLR2. Type of assay: cell-based. Particulars: expression of TLR2, 10 ng/ml for 8 h. As for the experimental part: (§1) HEK 293 cells were transformed with TLR1, TLR2 and TLR6 expression vectors, and pELAM-luciferase reporter plasmid were used together. For normalization of transfection efficiency by lipofectamine 2000 (Invitrogen), the indicated vector was used with pELAM-luciferase reporter plasmid (J. Bio. Chem. 274, 10689, 1999) and pRL-TK (Promega) to transfect transiently […] cells. 24 h after transfection, the cells were stimulated with 10 ng/ml of Pam3CSK4 for 8 h. Then, the cells were lysed, and luciferase activity was measured by using Dual-luciferase reporter assay system (Promega) according to the manufacturer's instruction.
(In general: Reporter assays use an easily measured gene product as a stand-in for the process of interest.)

Another assay deals with T2, TLR6 and TLR2 (Homo sapiens, UniProt O60603).
T2 construct: expressed in transfected cells; host or cells: HEK 293 cells, transient transfection
Kind of assay: NF-κB pELAM-luciferase reporter assay in HEK 293 cells co-expressing TLR6 and TLR2. In kind it is cell-based. Particulars: co-expression of TLR6 and TLR2, 10 ng/ml for 8 h. As for the experimental part: as §1

Assay [4] concerns the target T3, TLR1 and TLR2 (Homo sapiens, UniProt O60603+Q15399). Briefly: Co-immunoprecipitation of HA-tagged TLR1 and Flag-tagged TLR2 in HEK293 cells. In kind it is binding. Set-up: expressed in transfected cells; host or cells: HEK293 cells. As for the experimental part:
HEK293 cells were co-transfected with 3 μg Flag-tagged TLR2, TLR4 or 6 μg HA-tagged TLR1. After 36 h, the cells were lysed in the lysis buffer containing 1.0% Nonidet P-40, 150 mM NaCl, 20 mM tris-HCl (pH 7.5), 5 mM EDTA and aprotease inhibitor cocktail tablet, Complete (Roche Diagnostics). The solution was pre-treated for 1 h with protein G-sepharose, and immunoprecipitated for 12 h by using 2 μg anti-Flag M2 antibody or 2 μg anti-HA 12 CA5 antibody. The beads were washed four times in the lysis buffer, and the immunoprecipitated proteins were eluted in SDS-PAGE sample buffer solution, separated on SDS-PAGE and transferred onto PVDF membrane. HA-tagged TLR1 was detected with anti-HA antibody (Roche Diagnostics) and HRP-tagged anti-mouse Ig antibody. Flag-tagged proteins were identified with the second antibody, HRP-conjugated anti-Flag M2 antibody. Then, the antibodies were detected by enhanced chemiluminescence system (Dupont).

Assay [5] addresses T3, TLR1 and TLR2. Briefly: NF-κB pELAM-luciferase reporter assay in HEK 293 cells co-expressing TLR1 and TLR2. In kind it is cell-based. Set-up: expressed in transfected cells; host or cells: HEK 293 cells, transient transfection. Particulars: co-expression of TLR1 with TLR2, 10 ng/ml for 8 h. As for the experimental part:
as §1

T3 sequence (Q15399 25-786, species assumed): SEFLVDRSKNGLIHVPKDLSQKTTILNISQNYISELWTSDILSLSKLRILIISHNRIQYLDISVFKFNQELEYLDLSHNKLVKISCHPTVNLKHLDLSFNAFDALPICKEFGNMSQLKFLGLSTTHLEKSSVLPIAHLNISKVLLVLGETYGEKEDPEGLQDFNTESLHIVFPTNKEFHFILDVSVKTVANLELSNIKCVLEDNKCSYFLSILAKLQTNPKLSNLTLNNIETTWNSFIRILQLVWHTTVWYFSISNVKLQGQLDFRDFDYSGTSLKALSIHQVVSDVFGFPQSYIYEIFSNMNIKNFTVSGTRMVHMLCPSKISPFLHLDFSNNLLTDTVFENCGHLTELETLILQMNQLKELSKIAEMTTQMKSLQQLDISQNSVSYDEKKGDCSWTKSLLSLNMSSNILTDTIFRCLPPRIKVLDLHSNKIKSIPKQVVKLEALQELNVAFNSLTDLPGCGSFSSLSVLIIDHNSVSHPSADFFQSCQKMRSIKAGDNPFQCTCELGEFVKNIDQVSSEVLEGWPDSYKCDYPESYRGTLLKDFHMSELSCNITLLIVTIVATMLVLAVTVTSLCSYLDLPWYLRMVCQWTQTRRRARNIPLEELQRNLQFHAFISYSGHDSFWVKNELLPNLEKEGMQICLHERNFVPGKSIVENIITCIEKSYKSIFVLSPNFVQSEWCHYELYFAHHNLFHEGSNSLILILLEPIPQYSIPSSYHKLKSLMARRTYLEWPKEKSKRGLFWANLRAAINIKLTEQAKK
T3 sequence (O60603 21-784, species assumed): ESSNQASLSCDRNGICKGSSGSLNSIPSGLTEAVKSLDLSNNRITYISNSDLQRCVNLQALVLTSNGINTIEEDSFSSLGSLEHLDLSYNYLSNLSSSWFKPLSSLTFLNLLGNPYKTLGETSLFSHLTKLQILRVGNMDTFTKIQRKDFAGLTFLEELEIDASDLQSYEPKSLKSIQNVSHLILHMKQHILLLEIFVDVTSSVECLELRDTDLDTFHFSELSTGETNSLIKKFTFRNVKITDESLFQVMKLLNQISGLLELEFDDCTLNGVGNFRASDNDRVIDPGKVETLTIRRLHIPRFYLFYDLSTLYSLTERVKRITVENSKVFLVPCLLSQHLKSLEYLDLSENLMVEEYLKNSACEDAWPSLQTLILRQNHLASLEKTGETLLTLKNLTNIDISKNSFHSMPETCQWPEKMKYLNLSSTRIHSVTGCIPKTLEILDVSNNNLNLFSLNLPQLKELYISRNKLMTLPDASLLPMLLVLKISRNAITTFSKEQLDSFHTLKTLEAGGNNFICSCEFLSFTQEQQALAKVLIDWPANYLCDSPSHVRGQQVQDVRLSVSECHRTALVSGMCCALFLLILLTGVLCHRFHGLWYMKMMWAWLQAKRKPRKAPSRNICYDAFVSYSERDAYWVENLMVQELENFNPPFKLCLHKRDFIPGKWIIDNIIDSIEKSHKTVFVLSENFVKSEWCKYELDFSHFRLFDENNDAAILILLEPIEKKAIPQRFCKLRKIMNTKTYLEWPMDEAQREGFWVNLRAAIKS
T2 sequence (O60603 21-784, species assumed): as above
T1 sequence (O60603 21-784, species assumed): as above
T1 sequence (Q15399 25-786, species assumed, further chain): as the sequence (Q15399 25-786, species assumed) above

Take “19 kD lipoprotein: Native 19-kD lipoprotein purified from Mycobacterium tuberculosis”: the TNFα production entry in assay [1] is on record as “generated TNFα in a dose-dependent manner”; with TLR1^-/- macrophages [2], “impaired”. The IL-6 production result with TLR1^-/- macrophages [3] is given as “lower in TLR1^-/- macrophages compared with that of wild-type cells”. In addition, the Cytokine production result in the assay with TLR2^-/- macrophages was “inhibited”.
Turning to MALP-2, in the assay with TLR1^-/- macrophages [2], the TNFα production entry is given as “responded normally”.
Turning to “N-palmitoyl-S-dilauryl glyceryl (N-Pam-S-Lau2)CSK4 [Lau2N-PamCSK4]”, in the assay with TLR1^-/- macrophages [2], the TNFα production result is on record as “considerably impaired”.
On to “N-palmitoyl-S-dipalmitoyl glyceryl (Pam3) CSK4 [Pam3CSK4]”, for which, in the assay with TLR1^-/- macrophages [2], the TNFα production entry is on record as “significantly impaired”. Further, the “NF-κB activation (luciferase activity)” value at TLR2 is on record as “conferred the NF-κB activation”; at TLR6 and TLR2 it was “did not augment the NF-κB activation”; on TLR1 and TLR2 [5] it was “significantly enhanced the activation”. Moreover, at TLR1 and TLR2 [4], the “extent of association between TLR1 and TLR2 on stimulation” value is listed as “did not affect”.
On to “N-lauryl-S-dilauryl gylceryl (Lau3)CSK4 [Lau3CSK4]”, for which the TNFα production entry with TLR1^-/- macrophages [2] is “impaired”.
Regarding “N-myristyl-S-dimyristyl glyceryl (Myr3) CSK4 [Myr3CSK4]”, in the assay with TLR1^-/- macrophages [2], the TNFα production entry is on record as “impaired”.
